Structures can show the parent of a compound that is named as a salt. Some results are limits rather than exact numbers.

A word on the Ki: it is a measure of affinity in units of concentration, obtained from inhibition or displacement.

One assay has as its target T1, human V1a receptors (Homo sapiens).
T1 construct: expressed in transfected cells
Kind of assay: Vasopressin V1a Receptor Binding Test. To be noted: membranes of CHO cells with stably expressed human V1a receptors, 125 iodine AVP displacement. The protocol:
Vasopressin V1a Receptor Binding Test
(§1) The substances were dissolved in DMSO in a concentration of 10^−2 M and further diluted in DMSO to 10^−3 M to 10^−9 M. These DMSO solutions were diluted 1:10 with a test buffer. In the test batch, the substance concentration was again diluted 1:10.
The binding test was conducted according to the method of Tahara et al. (Tahara A. et al., Brit. J. Pharmacol. 125, 1463-1470 (1998)). In the test batch (0.250 ml), membranes (50 μg protein in an incubation buffer (50 mmol tris, 10 mmol MgCl2, 0.1% BSA adjusted to pH 7.4 with HCl)) of CHO cells were incubated with stably expressed human V1a receptors (preparation V1a clone 5.0, with protease inhibitors, Roche complete Mini # 1836170) with 0.04 nmol 125 iodine AVP (NEX128) in the incubation buffer (total binding) or additionally with increasing concentrations of the test substance (displacement experiment). The non-specific binding was determined with 10^−6 M AVP. Determinations were carried out three times.
(§2) After incubation, 60 minutes at room temperature, the free radioligand was filtered off using vacuum filtration (Skatron cell harvester 7000) through Wathman GF/B fibreglass filters, and the filters were transferred to scintillation containers.
(§3) The liquid scintillation measurement was made in a Tricarb device, model 2000 or 2200CA (Packard). The conversion of the measured cpm into dpm was carried out with the help of a standard quench series.
(§4) The binding parameters were calculated using non-linear regression in SAS. The algorithms of the program work in a manner analogous to the LIGAND evaluation program (Munson P J und Rodbard D, Analytical Biochem. 107, 220-239 (1980)).
`CN1CCC(N2CCN(C(=O)OC3(c4ccccc4)C(=O)N(S(=O)(=O)c4ccccc4)c4ccc(Cl)cc43)CC2)CC1` (stereo not drawn) [Example 4, 4-(1-Methyl-piperidine-4-yl)-piperazine-1-carboxylic acid-[1-benzenesulfonyl-5-chloro-2-oxo-3-phenyl-2,3-dihydro-1H-indole-3-yl] ester dihydrochloride] displayed a Ki below 100 nM.

`COc1ccccc1C1(OC(=O)N2CCN(C3CCN(C)CC3)CC2)C(=O)N(S(=O)(=O)c2ccccc2)c2ccc(Cl)cc21` (stereo not drawn) [Example 1] showed a Ki below 100 nM.

For the molecule `CN1CCN(C2CCN(C(=O)OC3(c4ccccc4)C(=O)N(S(=O)(=O)c4ccccc4)c4ccc(Cl)cc43)CC2)CC1` (stereo not drawn) [Example 5, 4-(4-Methyl-piperazine-1-yl)-piperidine-1-carboxylic acid-[1-benzenesulfonyl-5-chloro-2-oxo-3-phenyl-2,3-dihydro-1H-indole-3-yl] ester], the Ki was below 100 nM.

Regarding `COc1ccc(S(=O)(=O)N2C(=O)C(NC(=O)N3CCN(C4CCN(C)CC4)CC3)(c3ccccc3OC)c3cc(Cl)ccc32)c(OC)c1` (stereo not drawn) [Example 3, 4-(1-Methyl-piperidine-4-yl)-piperazine-1-carboxylic acid-[1-(2,4-dimethoxy-benzenesulfonyl)-5-chloro-2-oxo-3-(2-methoxyphenyl)-2,3-dihydro-1H-indole-3-yl] amide dihydrochloride], the Ki was below 100 nM.

For `COc1ccc(S(=O)(=O)N2C(=O)C(OC(=O)N3CCN(C4CCN(C)CC4)CC3)(c3ccccc3C)c3cc(OC)ccc32)c(OC)c1` (stereo not drawn) [Example 8, 4-(1-Methyl-piperidine-4-yl)-piperazine-1-carboxylic acid-[1-(2,4-dimethoxy-benzenesulfonyl)-5-methoxy-2-oxo-3-(2-methylphenyl)-2,3-dihydro-1H-indole-3-yl] ester dihydrochloride], the Ki was below 100 nM.

For `COc1ccc(S(=O)(=O)N2C(=O)C(OC(=O)N3CCN(C4CCN(Cc5ccccc5)CC4)CC3)(c3ccccc3OC)c3cc(OC)ccc32)c(OC)c1` (stereo not drawn) [Example 13, 4-(1-Benzyl-piperidine-4-yl)-piperazine-1-carboxylic acid-[1-(2,4-dimethoxy-benzenesulfonyl)-5-methoxy-2-oxo-3-(2-methoxyphenyl)-2,3-dihydro-1H-indole-3-yl] ester], the inhibition constant (Ki) was below 100 nM.

Another assay concerns the target T2, human V1b receptors (Homo sapiens, UniProt P47901).
T2 construct: expressed in transfected cells
T2 sequence (P47901 1-424): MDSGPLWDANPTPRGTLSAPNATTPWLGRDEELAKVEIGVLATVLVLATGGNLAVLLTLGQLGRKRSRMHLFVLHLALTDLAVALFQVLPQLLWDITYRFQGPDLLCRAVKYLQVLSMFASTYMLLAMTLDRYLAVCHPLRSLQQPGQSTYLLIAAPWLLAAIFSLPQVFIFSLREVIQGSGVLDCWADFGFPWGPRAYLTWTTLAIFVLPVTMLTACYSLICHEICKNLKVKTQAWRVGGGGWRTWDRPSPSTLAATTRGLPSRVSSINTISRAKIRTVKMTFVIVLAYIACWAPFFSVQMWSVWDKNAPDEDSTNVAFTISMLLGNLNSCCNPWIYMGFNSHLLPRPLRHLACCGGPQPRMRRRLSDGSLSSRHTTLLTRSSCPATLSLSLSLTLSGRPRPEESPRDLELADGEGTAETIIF
Kind of assay: Vasopressin V1b Receptor Binding Test. To be noted: membranes of CHO-K1 cells with stably expressed human V1b receptors, 3H-AVP displacement. The protocol: Vasopressin V1b Receptor Binding Test
as §1
The binding test was conducted according to the method of Tahara et al. (Tahara A. et al., Brit. J. Pharmacol. 125, 1463-1470 (1998)). In the test batch (0.250 ml), membranes (58 μg protein in an incubation buffer) of CHO-K1 cells were incubated with stably expressed human V1b receptors (preparation V1b-3H2, with protease inhibitors, Roche complete Mini # 1836170) with 1.5 nmol ^3H-AVP (8-Arg-Vasopressin, NET 800) in incubation buffer (50 mmol Tris, 10 mmol MgCl2, 0.1% BSA adjusted to pH 7.4 with HCl) (total binding) or additionally with increasing concentrations of the test substance (displacement experiment). The non-specific binding was determined with 10^−6 M AVP. Determinations were carried out three times.
Incubation buffer: 50 mmol tris, 10 mmol MgCl2, 0.1% BSA adjusted to pH 7.4 with HCl.
as §2, §3, §4
Take `COc1ccc(S(=O)(=O)N2C(=O)C(OC(=O)N3CCN(C4CCN(C)CC4)CC3)(c3ccccc3OC(C)C)c3cc(OC)ccc32)c(OC)c1` (stereo not drawn) [Example 24, 4-(1-Methyl-piperidine-4-yl)-piperazine-1-carboxylic acid-[1-(2,4-dimethoxy-benzenesulfonyl)-5-methoxy-2-oxo-3-(2-isopropoxyphenyl)-2,3-dihydro-1H-indole-3-yl] ester dihydrochloride]: the Ki was below 100 nM.

Molecule `COc1ccc2c(c1)C(OC(=O)N1CCN(C3CCN(C)CC3)CC1)(c1ccccc1OC(C)C)C(=O)N2S(=O)(=O)c1ccc(C)cc1OC` (stereo not drawn) [Example 26, 4-(1-Methyl-piperidine-4-yl)-piperazine-1-carboxylic acid-[1-(2-methoxy-4-methyl-benzene)-sulfonyl-5-methoxy-2-oxo-3-(2-isopropoxyphenyl)-2,3-dihydro-1H-indole-3-yl] ester dihydrochloride] came in with a Ki below 100 nM.

Regarding `COc1ccc(S(=O)(=O)N2C(=O)C(OC(=O)N3CCN(C4CCN(C)CC4)CC3)(c3ccccc3OC)c3cc(OC)ccc32)c(OC)c1` (stereo not drawn) [Example 6, 4-(1-Methyl-piperidine-4-yl)-piperazine-1-carboxylic acid-[1-(2,4-dimethoxy-benzenesulfonyl)-5-methoxy-2-oxo-3-(2-methoxyphenyl)-2,3-dihydro-1H-indole-3-yl] ester dihydrochloride], the Ki was below 100 nM.

`COc1ccc(S(=O)(=O)N2C(=O)C(OC(=O)N3CCN(C4CCN(C)CC4)CC3)(c3ccccc3OC)c3cc(F)ccc32)c(OC)c1` (stereo not drawn) [Example 10, 4-(1-Methyl-piperidine-4-yl)-piperazine-1-carboxylic acid-[1-(2,4-dimethoxy-benzenesulfonyl)-5-fluoro-2-oxo-3-(2-methoxyphenyl)-2,3-dihydro-1H-indole-3-yl] ester] came in with an inhibitory constant (Ki) below 100 nM.

Molecule `COc1ccc(S(=O)(=O)N2C(=O)C(NC(=O)N3CCN(C4CCN(C)CC4)CC3)(c3ccccc3OC)c3cc(OC)ccc32)c(OC)c1` (stereo not drawn) [Example 16, 4-(1-Methyl-piperidine-4-yl)-piperazine-1-carboxylic acid-[1-(2,4-dimethoxy-benzenesulfonyl)-5-methoxy-2-oxo-3-(2-methoxyphenyl)-2,3-dihydro-1H-indole-3-yl] amide dihydrochloride] showed a Ki below 100 nM.

`COc1ccc(S(=O)(=O)N2C(=O)C(OC(=O)N3CCN(C4CCN(C)CC4)CC3)(c3ccccc3OC)c3ccccc32)c(OC)c1` (stereo not drawn) [Example 23, 4-(1-Methyl-piperidine-4-yl)-piperazine-1-carboxylic acid-[1-(2,4-dimethoxy-benzenesulfonyl)-2-oxo-3-(2-methoxyphenyl)-2,3-dihydro-1H-indole-3-yl] ester dihydrochloride] came in with an inhibition constant Ki below 100 nM.

The molecule `CCOc1ccccc1C1(OC(=O)N2CCN(C3CCN(C)CC3)CC2)C(=O)N(S(=O)(=O)c2ccc(OC)cc2OC)c2ccc(OC)cc21` (stereo not drawn) [Example 30, 4-(1-Methyl-piperidine-4-yl)-piperazine-1-carboxylic acid-[1-(2,4-dimethoxy-benzenesulfonyl)-5-methoxy-2-oxo-3-(2-ethoxyphenyl)-2,3-dihydro-1H-indole-3-yl] ester dihydrochloride] came in with an inhibition constant Ki below 100 nM.

Molecule `COc1ccc(S(=O)(=O)N2C(=O)C(OC(=O)N3CCN(C4CCN(C)CC4)CC3)(c3ccccc3OC)c3cc(C)ccc32)c(OC)c1` (stereo not drawn) [Example 17, 4-(1-Methyl-piperidine-4-yl)-piperazine-1-carboxylic acid-[1-(2,4-dimethoxy-benzenesulfonyl)-5-methyl-2-oxo-3-(2-methoxyphenyl)-2,3-dihydro-1H-indole-3-yl] ester dihydrochloride] yielded a Ki below 100 nM.

Turning to `CCCOc1ccccc1C1(OC(=O)N2CCN(C3CCN(C)CC3)CC2)C(=O)N(S(=O)(=O)c2ccc(OC)cc2OC)c2ccc(OC)cc21` (stereo not drawn) [Example 2, 4-(1-Methyl-piperidine-4-yl)-piperazine-1-carboxylic acid-[1-(2,4-dimethoxy-benzenesulfonyl)-5-methoxy-2-oxo-3-(2-propoxyphenyl)-2,3-dihydro-1H-indole-3-yl] ester], the Ki is below 100 nM.

These data come from patent US7951807B2 (Abbott GmbH & Co. KG, priority 2004, dated 2011).
